Common to all, as to format: physicochemical
The nature of series [1]: Hygroscopicity of Form P-1.
Series [2] is described as follows: pKa of Form P-1.
Series [3] is described as follows: Aqueous solubility of Form P-1. The settings on record: aqueous medium.
Series [4] is described as follows: Solvent mediated polymorphic transformation (suspension of P-1 crystals in solvents). The settings on record: room temperature or elevated temperature.

Structures are written as SMILES. Converted amounts (≈) assume the structure as drawn.

As to `COc1cnc(-n2cnc(C)n2)c2[nH]cc(C(=O)C(=O)N3CCN(C(=O)c4ccccc4)CC3)c12` [Form P-1, 1-(4-benzoyl-piperazin-1-yl)-2-[4-methoxy-7-(3-methyl-[1,2,4]triazol-1-yl)-1H-pyrrolo[2,3-c]pyridin-3-yl]-ethane-1,2-dione], the “Hygroscopicity: maximum water uptake” value in series [1] (at 90% RH) was “RH and 3.2% maximum water uptake at 90% RH)”. Besides, the Hygroscopicity result in series [1] (result in words) was “Low hygroscopicity”. The “Hygroscopicity: weight gain” value in series [1] (under 30-60% RH) is given as 1%. The compound further yielded a pKa in series [2] of 8.4. The solubility in series [3] (25 °C, pH 5.7, aqueous buffer) was 0.0027 mg/mL (≈ 5.7 µM); in series [3] (aqueous buffer, pH 8.6, 25° C.) it was 0.014 mg/mL (≈ 29.6 µM); in series [3] (simulated gastric fluid, pH 1.4, 25° C.), 0.012 mg/mL (≈ 25.3 µM). Also, the “Phase conversion on suspension in various solvents” value in series [4] was “did not show any phase conversion”.

The values are drawn from US7829711B2, “Crystalline materials of 1-(4-benzoyl-piperazin-1-yl)-2-[4-methoxy-7-(3-methyl-[1,2,4]triazol-1-yl)-1H-pyrrolo[2,3-C]pyridine-3-yl]-ethane-1,2-dione” (Bristol-Myers Squibb Company, priority 2004, dated 2010).
